Results as given in patent US20250170147A1, “NEUROACTIVE STEROIDS FOR TREATMENT OF GASTROINTESTINAL DISEASES OR CONDITIONS” (Sage Therapeutics, Inc., priority 2022, published 2025).
Entries after “also recorded” stand apart in the source; their conditions may differ. Marks after values point to notes of the source that are not given here.

Columns and labels:
[1] = test system: patients with major depressive disorder; settings: meta-analysis, cited from earlier work; for rates of gastrointestinal adverse reactions compared to placebo: 15 most commonly used antidepressants in MDD; for tolerability on the gastrointestinal tract among antidepressants: patients with MDD
[2] = clinical trials; meta-analysis; cited from earlier work
[3] = test system: adults with MDD; test: Study NCT04476030: suicidal ideation/behavior by C-SSRS; type: in vivo, human; settings: compared to baseline
Experimental: (§1) A randomized, double-blind, parallel-group, active/placebo-controlled study (NCT04476030) in participants with major depressive disorder (MDD) was conducted. The study evaluated the efficacy and safety of zuranolone 50 mg co-initiated with standard-of-care (SOC) antidepressant therapies (ADTs) (zuranolone+ADT) vs placebo co-initiated with SOC ADT (placebo+ADT) in adults with MDD. Patients were randomized 1:1 to once-daily, blinded zuranolone+ADT or placebo+ADT for 14 days then continued open-label SOC ADT for 28 more days.
(§2) The proportion of patients who had suicidal ideation at any post baseline visit from Day 3 through Day 42 ranged from 4.8% to 11.7% in the zuranolone+ADT group and from 6.0% to 12.4% in the placebo+ADT group. No patients who received placebo+ADT experienced suicidal behavior.

[4] = test system: adults with MDD; test: Study NCT04476030: treatment-emergent adverse events (safety set); type: in vivo, human; settings: for tolerability: zuranolone 50 mg once daily 14 days co-initiated with SOC ADT
Experimental: as §1
An AE could therefore be any unfavorable and unintended sign (including an abnormal laboratory finding), symptom or disease temporally associated with the use of a medicinal (investigational) product whether or not related to the medicinal (investigational) product. In clinical studies, an AE could include an undesirable medical condition occurring at any time, including baseline or washout periods, even if no study treatment had been administered.
A treatment emergent adverse event (TEAE) was defined as an AE with onset after the start of investigational product (IP), or any worsening of a pre-existing medical condition/AE with onset after the start of IP and throughout the study. The term IP included any Sage IP, a comparator, or a placebo administered in a clinical study.
The investigator made the determination of relationship to the IP for each AE (not related, related). The following definitions should have been considered when evaluating the relationship of AEs and SAEs to the IP.

[5] = test system: adults with MDD; test: Study NCT04476030: withdrawal symptoms by Physician Withdrawal Checklist (PWC-20); type: in vivo, human
Experimental: as §1, §2

[6] = ADT continuation period, of 212
[7] = double blinded treatment period
[8] = double blinded treatment period, of 212
[9] = safety set n=212, listed as zuranolone+ADT
[10] = zuranolone 50 mg + ADT, safety set n=212, whole study

## COc1ccc2cccc(CCNC(C)=O)c2c1 [agomelatine]
[1]
  rates of gastrointestinal adverse reactions compared to placebo: higher rates

## CC(NC(C)(C)C)C(=O)c1cccc(Cl)c1 (stereo not shown) [bupropion]
[1]
  rates of gastrointestinal adverse reactions compared to placebo: higher rates

## CN(C)CCCC1(c2ccc(F)cc2)OCc2cc(C#N)ccc21 (stereo not shown) [citalopram]
[1]
  rates of gastrointestinal adverse reactions compared to placebo: higher rates

## CN(C)CC(c1ccc(O)cc1)C1(O)CCCCC1 (stereo not shown) [desvenlafaxine]
[1]
  rates of gastrointestinal adverse reactions compared to placebo: higher rates

## CNCC[C@H](Oc1cccc2ccccc12)c1cccs1 [duloxetine]
[1]
  rates of gastrointestinal adverse reactions compared to placebo: higher rates

## CN(C)CCC[C@@]1(c2ccc(F)cc2)OCc2cc(C#N)ccc21 [escitalopram]
[1]
  rates of gastrointestinal adverse reactions compared to placebo: higher rates
  tolerability on the gastrointestinal tract among antidepressants: least tolerated

## CNCCC(Oc1ccc(C(F)(F)F)cc1)c1ccccc1 (stereo not shown) [fluoxetine]
[1]
  rates of gastrointestinal adverse reactions compared to placebo: higher rates

## COCCCC/C(=N\OCCN)c1ccc(C(F)(F)F)cc1 [fluvoxamine]
[1]
  rates of gastrointestinal adverse reactions compared to placebo: higher rates

## CCN(CC)C(=O)[C@@]1(c2ccccc2)C[C@H]1CN [levomilnacipran]
[1]
  rates of gastrointestinal adverse reactions compared to placebo: higher rates

## CN1CCN2c3ncccc3Cc3ccccc3C2C1 (stereo not shown) [mirtazapine]
[1]
  rates of gastrointestinal adverse reactions compared to placebo: higher rates

## Fc1ccc([C@@H]2CCNC[C@H]2COc2ccc3c(c2)OCO3)cc1 [paroxetine]
[1]
  rates of gastrointestinal adverse reactions compared to placebo: higher rates

## CCOc1ccccc1OC(c1ccccc1)C1CNCCO1 (stereo not shown) [reboxetine]
[1]
  rates of gastrointestinal adverse reactions compared to placebo: higher rates

## CN[C@H]1CC[C@@H](c2ccc(Cl)c(Cl)c2)c2ccccc21 [sertraline]
[2]
  incidence of diarrhea compared to other SSRIs and venlafaxine: higher incidence of diarrhea
[1]
  rates of gastrointestinal adverse reactions compared to placebo: higher rates
  tolerability on the gastrointestinal tract among antidepressants: least tolerated

## COc1ccc(C(CN(C)C)C2(O)CCCCC2)cc1 (stereo not shown) [venlafaxine]
[2]
  rates of nausea and vomiting compared to SSRIs and duloxetine: higher rates of nausea and vomiting
[1]
  rates of gastrointestinal adverse reactions compared to placebo: higher rates

## Cc1ccc(Sc2ccccc2N2CCNCC2)c(C)c1 [vortioxetine]
[1]
  rates of gastrointestinal adverse reactions compared to placebo: higher rates

## zuranolone [Zuranolone + ADT]
[3]
  suicidal ideation/behavior signals vs baseline (C-SSRS): No increases from baseline; also recorded: No signals for an increased suicidal ideation or suicidal behavior
[4]; ADT continuation period
  Sexual Dysfunction TEAE, incidence: 0.9%
  Sleep Disorders TEAE, incidence: 3.8%
  TEAEs during the ADT continuation period, incidence: 31.6%
[4]; [6]
  Sexual Dysfunction TEAE, number of patients: 2
  Sleep Disorders TEAE, number of patients: 8
  TEAEs during the ADT continuation period, number of patients: 67
[4]; comparison with placebo+ADT
  incidence of gastrointestinal AEs (e.g., nausea, diarrhea) vs placebo+ADT: lower incidence
[4]; [7]
  Sexual Dysfunction TEAE, incidence: 3.8%
  Sleep Disorders TEAE, incidence: 9.9%
[4]; [8]
  Sexual Dysfunction TEAE, number of patients: 8
  Sleep Disorders TEAE, number of patients: 21
[4]; double-blind treatment period
  TEAEs during the double-blind treatment period, incidence: 68.4%
[4]; double-blind treatment period, of 212
  TEAEs during the double-blind treatment period, number of patients: 145
[4]; safety set n=212
  Decreased Appetite TEAE, incidence: (5.7%)
  Decreased Appetite TEAE, number of patients: 12
  Diarrhea TEAE, incidence: (6.1%)
  Diarrhea TEAE, number of patients: 13
  Dizziness TEAE, number of patients: 28
  Dose reduction due to TEAE, incidence: (9.4%)
  Dose reduction due to TEAE, number of patients: 20
  Dry Mouth TEAE, incidence: (9.4%)
  Dry Mouth TEAE, number of patients: 20
  Fatigue TEAE, incidence: (8.5%)
  Fatigue TEAE, number of patients: 18
  Headache TEAE, number of patients: 25
  Insomnia TEAE, incidence: (9.9%)
  Insomnia TEAE, number of patients: 21
  Nausea TEAE, number of patients: 19
  Sedation TEAE, incidence: (5.7%)
  Sedation TEAE, number of patients: 12
  Serious AEs, incidence: (0.9%)^c
  Serious AEs, number of patients: 2
  Somnolence TEAE, number of patients: 39
  Study withdrawal due to TEAE, incidence: (5.2%)
  Study withdrawal due to TEAE, number of patients: 11
  TEAE maximum severity Mild, incidence: (35.8%)
  TEAE maximum severity Mild, number of patients: 76
  TEAE maximum severity Moderate, incidence: (34.4%)
  TEAE maximum severity Moderate, number of patients: 73
  TEAE maximum severity Severe, incidence: (3.8%)
  TEAE maximum severity Severe, number of patients: 8
  Treatment discontinuation due to TEAE, incidence: (6.6%)
  Treatment discontinuation due to TEAE, number of patients: 14
  Tremor TEAE, incidence: (5.2%)
  Tremor TEAE, number of patients: 11
[4]; [9]
  Dizziness TEAE, incidence: 13.2%
  Headache TEAE, incidence: 14.7%
  Nausea TEAE, incidence: 9.0%
  Serious AEs, incidence: 0.9%
  Serious AEs, number of patients: Two
  Somnolence TEAE, incidence: 18.4%
[4]; whole study
  Gastrointestinal disorder TEAE, incidence: 29.7%
  Sexual Dysfunction TEAE, incidence: 4.7%
  Sleep Disorders TEAE, incidence: 12.7%
[4]; whole study, of 212
  Gastrointestinal disorder TEAE, number of patients: 63
  Sexual Dysfunction TEAE, number of patients: 10
  Sleep Disorders TEAE, number of patients: 27
[4]; [10]
  Any TEAE, incidence: (74.1%)
  Any TEAE, number of patients: 157
[4]; zuranolone 50 mg + ADT, safety set n=212, whole study, listed as zuranolone+ADT
  Any TEAE, incidence: 74.1%
[4]
  tolerability: generally well-tolerated
[4]; listed as zuranolone co-initiated with an SOC ADT
  tolerability: generally well tolerated
[5]; Day 18
  mean decrease from baseline in PWC-20 total score: −0.6
[5]; Day 21
  mean decrease from baseline in PWC-20 total score: −0.8
[5]; after discontinuation
  withdrawal symptoms (PWC-20): No increases from baseline; also recorded: No signals for an evidence of withdrawal symptoms
